Assay results reported in patent US10709745B2, “Tropic cell based virotherapy for the treatment of cancer” (priority 2013, dated 2020).
Read-outs that look alike come from different tables or passages of the source.

Columns and labels:
U87 = assay: Glioma cell viability (MTT) under XRT-TMZ with or without CRAd-S-pk7; format: cell-based, human; details: for IC50: Homo sapiens, U-87 MG
Protocol: (§1) FIGS. 42A and 42B illustrate antitumor effects of CRAd-Survivin-pk7 (CRAd-S-pk7)-loaded NSCs and their combination with XRT-TMZ against glioma cell lines in vitro according to one embodiment. (FIG. 42A): Cytotoxicity of patient-derived GBM43 tumor cells 96 hours after coculture with CRAd-S-pk7-loaded NSCs at the NSC to GBM43 cell ratios of 1:0, 1:2, 1:5, 1:10, or 1:50. Top: Representative light microscope pictures of GBM43 viability. Bottom: Mean luciferase intensity values represented as the percentages of viable glioma cells compared with control. (FIG. 42B): U251 and U87 glioma cell viability measured by 3-(4,5-dimethylthiazol-2-yl)-2,5-diphenyltetrazolium bromide at 96 hours after treatment. The addition of CRAd-S-pk7 (50 infectious units) to conventional XRT-TMZ therapy reduced the percentage of glioma cell viability in both tested cell lines. […] Abbreviations: NSC, neural stem cell; OV, oncolytic virus; TMZ, temozolomide; XRT, radiation therapy.
(§2) FIGS. 44A and 44B show the optimization of combination therapy in vitro according to one embodiment. (FIG. 44A): Cytotoxicity of U251 and U87 glioma cell lines and GBM39 patient-derived cell line treated with Rx-OV or OV-Rx. Left: The percentage of viability of glioma cells measured by 3-(4,5-dimethylthiazol-2-yl)-2,5-diphenyltetrazolium bromide 96 hours after treatment. Right: Representative light microscope pictures of U87 glioma cell viability (magnification, ×10). (FIG. 44B): Percentage of apoptotic GBM43 cells at 48 hours after treatment with Rx-OV or OV-Rx treatment protocols as measured by the expression of active caspase-3-positive tumor cells by FACS (bottom). Top: Representative FACS plots. *, p<0.05; **, p<0.01; ***, p<0.001. Abbreviations: DMSO, dimethyl sulfoxide; OV-Rx, ionizing radiation-temozolomide therapy 24 hours after oncolytic virus; PE, phycoerythrin; Rx-OV, oncolytic virus 24 hours after ionizing radiation-temozolomide therapy.
(§3) For all studies, the cells and mice received XRT in accordance with the University of Chicago's radiation safety guidelines and protocols. All cells received a single dose of 2 Gy XRT. For animal studies, 10 Gy fractioned dose radiotherapy (2 Gy for 5 consecutive days) was used. The animals were irradiated with a lead cover shielding their entire body, with only their heads exposed. […] For in vivo studies, the mice received 2.5, 5, 10, or 30 mg/kg TMZ via intraperitoneal injection.
(§4) A green fluorescent protein (GFP) expressing HB1.F3-CD cell line was generated as described elsewhere (Ahmed et al. 2011a). GBM43-Fluc cells were plated in 12-well plates and cocultured with HB1.F3-CDGFP cells loaded with CRAd-S-pk7 in the following NSC to glioma cell ratios: 1:0, 1:2, 1:5, 1:10, and 1:50. After 96 hours, the cells were collected, lysed with reporter lysis buffer (Promega, Madison, Wis., http://www.promega.com), and added to luciferase assay reagent (Promega) according to the manufacturer's protocol. Following lysate preparation, the mean fluorescence intensity (MFI) was estimated for each group of cocultured cells using the GloMax 20/20 Luminometer (Promega). The mean luciferase intensity values were represented as the percentage of cells viable compared with mock cells. U251, U87, and GBM39 cell viability was determined using 3-(4,5-dimethylthiazol-2-yl)-2,5-diphenyltetrazolium bromide (MTT) cell proliferation kit (Roche Diagnostics, Mannheim, Germany, http://www.roche-applied-science.com). The viability was subsequently determined by MTT as described by the manufacturer's protocol. Cell viability was expressed as the percentage of cells alive compared with the dimethyl sulfoxide-treated control.
(§5) Next, it was tested whether CRAd-S-pk7 could enhance the therapeutic efficacy of conventional XRT-TMZ. U251 or U87 glioma cells were treated with conventional therapy consisting of 2 Gy XRT and varying concentrations of TMZ (0-1×10^3 µM) or conventional treatment plus 50 IU of CRAd-S-pk7, and cell viability was measured by MTT at 96 hours. […]

U251 = assay: as above; format: cell-based, human; details: for IC50: Homo sapiens, U-251
Protocol: as §1, §2, §3, §4, §5

[1] = 2 Gy XRT plus 50 IU of CRAd-S-pk7, MTT 96 hours, read-out: IC50 values for TMZ
[2] = treated with XRT (2 Gy) simultaneously, read-out: IC50

## Cn1nnc2c(C(N)=O)ncn2c1=O [TMZ, temozolomide]
U87; [1]
  IC50: 10 µM
U87; [2]
  IC50: 25 µM
U87; XRT-TMZ
  decrease of TMZ IC50 when OV was added: 15 µM
U251; [1]
  IC50: 13 µM
U251; [2]
  IC50: 44 µM
U251; XRT-TMZ
  decrease of TMZ IC50 when OV was added: 31 µM
